For this assay, the target named is T1, human FPTase (Homo sapiens, UniProt P49354+P49356).
T1 construct: made in house
As to the kind of experiment: In vitro inhibition of Ras farnesyl transferase. It counts as biochemical. As to conditions: recombinant FPTase; 650 nM Ras-CVLS, 100 nM farnesyl diphosphate; 30° C.; read-out: IC50 for inhibitory activity against human FPTase. The procedure:
Transferase Assays. Isoprenyl-protein transferase activity assays are carried out at 30° C. unless noted otherwise. A typical reaction contains (in a final volume of 50 μL): [^3H]farnesyl diphosphate, Ras protein, 50 mM HEPES, pH 7.5, 5 mM MgCl2, 5 mM dithiothreitol, 10 μM ZnCl2, 0.1% polyethyleneglycol (PEG) (15,000-20,000 mw) and isoprenyl-protein transferase. The FPTase employed in the assay is prepared by recombinant expression as described in Omer, C. A., Kral, A. M., Diehl, R. E., Prendergast, G. C., Powers, S., Allen, C. M., Gibbs, J. B. and Kohl, N. E. (1993) Biochemistry 32:5167-5176. After thermally pre-equilibrating the assay mixture in the absence of enzyme, reactions are initiated by the addition of isoprenyl-protein transferase and stopped at timed intervals (typically 15 min) by the addition of 1 M HCl in ethanol (1 mL). The quenched reactions are allowed to stand for 15 m (to complete the precipitation process). After adding 2 mL of 100% ethanol, the reactions are vacuum-filtered through Whatman GF/C filters. Filters are washed four times with 2 mL aliquots of 100% ethanol, mixed with scintillation fluid (10 mL) and then counted in a Beckman LS3801 scintillation counter.
For inhibition studies, assays are run as described above, except inhibitors are prepared as concentrated solutions in 100% dimethyl sulfoxide and then diluted 20-fold into the enzyme assay mixture. […]

Consider `Cn1cnc2c1C1c3ccc(C#N)c(c3)Oc3cccc(c3)S(=O)(=O)NCCC(=O)N1CC2` (racemic) [Example 1], for which the IC50 was no more than 5 µM.
